What was measured:
KCNQ channels = experiment: Thallium flux assay for KCNQ channel openers; assay type: cell-based; details: HEK-293 cells stably transfected with a KCNQ family member
In short: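 HEK-293 lines stably expressing individual KCNQ members, loaded with BTC-AM in chloride-free buffer pH 7.3, compound added (1% DMSO final) before 7.5 mM Tl2SO4 stimulus; fluorescence read 60 s on FLIPR. Minimal active concentration at ≥4 SD above negative controls; EC50 from 10-point logistic fit.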

mKCNQ2 channels = target: T1, mKCNQ2 channels (Mus musculus, UniProt Q9Z351); experiment: KCNQ patch-clamp (whole-cell recordings, HEK 293 stable cell line); assay type: cell-based; details: current of KCNQ2 channels, HEK 293 cells expressing mKCNQ2
T1 construct: expressed in transfected cells
Experimental: KCNQ Patch-clamp. Whole-cell patch-clamp recordings were made from an HEK 293 stable cell line expressing mKCNQ2 channels, maintained in culture for 1-2 days. Patch pipettes had initial resistances of 2.5-4 MΩ. Currents were recorded with an EPC-9 amplifier (HEKA, Lambrecht, Germany) controlled with software (Pulse, HEKA) run on a standard lab PC. Series resistance compensation was used during current recording, and set at 80%. The series resistance (R) and cell capacitance (C) were determined electronically by subtracting the capacitive currents at the onset and offset of a 5 mV voltage step. The cancellation of whole-cell capacitive transients was virtually complete in all cells. Analog current signals were low-pass filtered at 2.9 kHz using a four-pole Bessel filter −3 dB) and stored on a local network server computer at a sampling rate of […]. All recordings were performed at room temperature (20-22° C.). The pipette solution contained (mM) KCl, 150; CaCl2, 2.5; EGTA, 5; MgCl2, 1; HEPES, 10; pH to 7.3 with KOH, and Osmolality of 290-300 mOsm. The extracellular solution contained (mM): NaCl, 140; KCl, 2.5; CaCl2, 2.5; MgCl2, 1; glucose, 10; HEPES, 10; pH to 7.3 with NaOH, and Osmolality of 305-310 mOsm. […]

- EC50 (KCNQ channels; thallium flux, 10 point concentration series): < 50 nM
- EC50 (mKCNQ2 channels): 3 nM
Compound: CC(NC(=O)c1sc(-c2ccccc2F)nc1C(F)(F)F)c1cccc(OC(F)(F)F)c1 (stereo not drawn) [Example 21, 2-(2-fluorophenyl)-4-(trifluoromethyl)-N-[1-[3-(trifluoromethoxy)phenyl]ethyl]-5-thiazolecarboxamide]
- Min. conc. response (KCNQ channels; minimal active concentration: lowest concentration giving signal amplitude >= four standard deviations of negative controls): 0.3 µM
